For data set [1], the system named is human mesenchymal stem cells (WJ-MSCs). As to the kind of experiment: MTT viability assay, toxicity to normal cells. To be noted: 48 h growth in presence of drug, MTT assay (Figure 1). The class given is cell-based. (In general: Formazan colour is commonly taken as a measure of viable cells.)
Source text: Thus, human mesenchymal stem cells were extracted from Wharton's jelly (matrix) of the human fetal umbilical cord, also known as Wharton's Jelly Mesenchymal Stem cells (WJ-MSCs), from full-term pregnancies, as described in Christodoulou et al. [2022] and Goulielmaki et al. [2019].
WJ-MSCs up to seventh passage were used for this in vitro assay (b22 population doublings). The mean population doubling time (PDT) was 32+/- hours and cells maintained a consistent MSC immunophenotypic profile. […]
Cell viability of (WJ-MSCs) was determined colorimetrically in a 96-well plate assay, using the tetrazolium compound MTS (3-[4,5,dimethylthiazol-2-yl]-5-[3-carboxymethoxy-phenyl]-2-[4-sulfophenyl]-2H-tetrazolium, inner salt), which is bioreduced by cells into a colored formazan product that is soluble in tissue culture medium. […]
At a concentration of 3.5x10^2 cells/200 µL culture medium/well (37 °C, 5% CO2), WJ-MSCs were plated into 96-well microtiter plates. […] At the end, the absorbance was measured at 490nm (with 650nm as a reference wavelength) in a microplate reader (monochromator) [Monochro-mator Microplate Reader safire2 TECAN AUSTRIA GMBH/Measurement parameter Editor Magellan (version 6)].
A short description of data set [2]: Pharmacokinetic study in mice, plasma by LC-MS/MS. The data set is classed as in vivo, female C57BL/6 mice. The settings on record: ip. As for the experimental part: Samples (plasma) were collected after 15, 30, 60 and 120 min of drug administration.
All samples were analyzed by an LC-MS/MS bioanalytical methodology.

A further data set has as its system MCF-7. The data set can be described thus: MTT viability assay, MCF-7. The class given is cell-based, human.
The subject of another data set is HCT-116. As to the kind of experiment: MTT viability assay, HCT-116. The class given is cell-based. The settings on record: 72h, human colon cancer cells, biotin receptor-negative (Table 3a).
The subject of data set [3] is MDA-MB-231. The data set can be described thus: Platinum cell uptake by mass cytometry (CyTOF), MDA-MB-231. The settings on record: 50 µM, 60 min, in comparison to carboplatin (Figure 2). The class given is cell-based. As for the experimental part: (§1) Cell cultures: Cancer cell lines, SkBr3, MDA-MB-231, MCF-7 and A549, which overexpress biotin receptors on their surface membranes, were each independently cultured in Dulbecco's Modified Eagle Medium (DMEM), supplemented with 10% fetal bovine serum (FBS), penicillin (100 µ/mL) and streptomycin (100 µg/mL) at 37 °C and 5% CO2.
(§2) For MCF-7, MDA-MB-231 and SkBr3 cell lines, an additional step was performed by preincubating for 15 min with 10-100 µM biotin. The quantification was performed by means of mass cytometry. Cell singlet discrimination - staining protocol B of the mass cytometer supplier (Fluidigm) was followed.
(§3) Medium was removed from cultures and cells were pelleted at 1500 rpm. Resuspension of cells was performed in an appropriate volume of RPMI 1640 or DMEM medium to obtain a density of about 1.5-3 x 10^6 cells per mL. Cells were fractionated and treated with different concentrations of each drug or maintained as is (control). […] Suspensions were incubated for 60 min at 37 °C and 5% CO2. Suspensions used to evaluate the effect of biotin in platinum cellular uptake, were preincubated with 100 µM biotin for 15 min before the treatment with each drug. […] A small volume of suspensions was maintained to quantify cells using Trypan blue staining. […]

The subject of a further data set is A549. As to the kind of experiment: Platinum cell uptake by mass cytometry (CyTOF), A549. The data set is classed as cell-based. To be noted: 50 µM, 60 min, in comparison to carboplatin (Figure 2). The method, then:
as §1, §2, §3

The subject of another data set is SkBr3. The data set can be described thus: Platinum cell uptake by mass cytometry (CyTOF), SkBr3. The class given is cell-based. To be noted: for cellular uptake (CyTOF Pt195 signal): 50 µM, 60 min, in comparison to 50 µM carboplatin (Figure 3). The method, then: as §1, §2
Medium was removed from cultures and cells were pelleted at 1500 rpm. Resuspension of cells was performed in an appropriate volume of RPMI 1640 or DMEM medium to obtain a density of about 1.5-3 x 10^6 cells per mL. Cells were fractionated and treated with different concentrations of each drug or maintained as is (control). […] Suspensions were incubated for 60 min at 37 °C and 5% CO2. Suspensions used to evaluate the effect of biotin in platinum cellular uptake, were preincubated with 100 µM biotin for 15 min before the treatment with each drug. After incubation, cells were stained using Maxpar cell staining buffer (MCSB) and then fixed using 1.6% paraformaldehyde in PBS for 10 min at room temperature. Incubation with intercalator 103Rh diluted in Maxpar fix-perm buffer was performed overnight at 4 °C. Cells were washed twice with MCSB, samples were pelleted and resuspended in cell acquisition solution (CAS). A small volume of suspensions was maintained to quantify cells using Trypan blue staining. As last step, each sample was diluted with CAS and calibration beads that include metal isotopes.

Another data set can be described thus: Solubility. To be noted: DMF.
Data set [4] has as its system SkBr3 human breast cancer cells. As to the kind of experiment: MTT viability assay, SkBr3. The class given is cell-based. To be noted: 72h (Table 3b).
Data set [5] concerns MDA-MB-231. As to the kind of experiment: MTT viability assay, MDA-MB-231. To be noted: 72h (Table 3b). The data set is classed as cell-based, human.
[6] abbreviates: 72h, with addition of 10 µM D-(+)-Biotin (Table 2b), read-out: MCF-7 and biotin IC50.
Setting [7] is: 72h, without biotin (Table 2b), read-out: MCF-7 IC50.

Where “and” joins values, the source holds several entries; their conditions need not be identical. Equal values may be shown once. Read-outs that look alike come from different tables or passages of the source.

`[NH3+][Pt-2]1([NH3+])[O]C(=O)C2(CCC2)C(=O)[O]1` [Carboplatin]: in data set [1], the “concentration at which less than 50% viability is reached” value was found to be 100 µM. Also, the Cmax in data set [2] (mouse, 60 mg/kg) came to 131 ± 50 µM. Besides, the AUC at 2 h in [2] (mouse, 60 mg/kg, read-out: Areas under the curve (AUCs) (converted)) is 69.4 µM·h.

Turning to `N.N.[Cl][Pt][Cl]` [Cisplatin, reference compound], the IC50 with MCF-7 (setting [6]) is 12 µM; in the data set on MCF-7 (setting [7]) it was 9 µM; with HCT-116 it was 7 µM and 8 µM.

On to `C[C@@H]1[NH2+][Pt-2]([Cl])([Cl])[NH2+][C@@H]1CCCCCC(=O)O` [PMX114, (7R,8S)-7,8-diaminononanoic acid dichloroplatinum(II)], for which, in [1], the “concentration at which less than 50% viability is reached” value is recorded as above 300 µM. The “platinum uptake (CyTOF Pt195 signal)” value in the data set with MDA-MB-231 [3] and in the data set with A549 was “significantly greater” each time. The “cellular uptake (CyTOF Pt195 signal)” value in the data set with SkBr3 is “significantly greater”. In addition, in the data set on SkBr3 (preincubation with 100 µM of biotin for 15 min, then 50 µM drug), the “effect of biotin preincubation on platinum entry” value is listed as “inhibition of platinum entry”. The AUC in data set [2] (female, C57BL/6, mouse, 75 mg/kg, read-out: Areas under the curve (AUCs) (converted)) is 42.1 µM·h. For the same compound, the Solubility result in “Solubility” is recorded as “good”.

With `CC(N)C(N)CCCCCC(=O)O.O=C1[O][Pt][O]C1=O` [PMX118, (7R,8S)-7,8-diaminononanoic acid oxalatoplatinum(ll)], the IC50 is 225 µM and > 250 µM in [4]; 100 µM in the data set with MCF-7 (72h (Table 3b), read-out: MCF-7 IC50); 290 µM in the data set on MCF-7 (setting [6]); 133 µM in the data set on MCF-7 (setting [7]); 225 µM and > 250 µM in the data set on HCT-116; 116 µM and 144 µM in the data set on MDA-MB-231 [5]. For the same compound, the “cellular uptake (CyTOF Pt195 signal)” value with SkBr3 is given as “significantly greater”.

The term Cmax denotes the maximum level reached in the sampled fluid or tissue. For orientation: IC50 means the concentration that gives 50% inhibition.

Source of the values: EP4461293B1, “BIOTIN RECEPTOR-BINDING […] COMPOUNDS” (Biomedical Research Foundation Academy of Athens, priority 2023, dated 2024).
